Measured values reported in patent US4064010A, “Purification of uricase” (Eastman Kodak Company, priority 1976, dated 1977).

Target: Micrococcus luteus NRRL B-8166 uricase
Assay: Assay of uricase (spectrophotometric, disappearance of uric acid at 290 nm)
Assay type: biochemical
Description: Uricase was assayed spectrophotometrically by following the disappearance of uric acid at 290 nm using a modification of the procedure described by Mahler et. al, J. Biol. Chem., 216, p. 625, (1955). Assay tubes contained 2.7 ml 50 mM KPi buffer pH 8.6, 0.1 mM sodium EDTA, 0.05 ml 6 mM urate, plus enzyme and water to give a final volume of 3.0 ml. Changes or additions to the assay mixtures were made when necessary. Tubes were incubated for 5 minutes at 30° C; the reaction was started by adding enzyme. Molar extinction coefficient for uric acid at 290 nm is 12,300. Activity was expressed in units of uricase activity, where a unit is that amount of enzyme which catalyzes the oxidation of one μmole of uric acid per minute at 30° C and pH 8.6.

Structure (SMILES)	Ki (read-out: inhibition constant for oxonate) [µM]	Km (substrate not given, the uricase assay uses urate, KPi buffer pH 8.6, 30° C, read-out: Michaelis constant) [µM]
O=C(O)c1nc(=O)[nH]c(=O)[nH]1 [oxonate]	4.5	–
O=c1[nH]c(=O)c2[nH]c(=O)[nH]c2[nH]1 [uric acid]	–	37
